Values quoted from earlier work as cited in paper PMC8344243, “Design, synthesis, docking, ADMET studies, and anticancer evaluation of new 3-methylquinoxaline derivatives as VEGFR-2 inhibitors and apoptosis inducers” (Journal of Enzyme Inhibition and Medicinal Chemistry, 2021).

Key:
Parameters in all cases: method as in PMID 33721808, PMID 34023640
[1] = test system: MCF-7; details: lead compounds of previous work ref 63, 64, read-out: Cytotoxicity on cancer cells IC50, MCF-7; cited from earlier work
[2] = test system: HepG2; details: lead compounds of previous work ref 63, 64, read-out: Cytotoxicity on cancer cells IC50, HepG2; cited from earlier work
[3] = biological target: T1, human VEGFR-2 (Homo sapiens, UniProt P35968); details: lead compounds of previous work ref 63, 64; cited from earlier work
T1 construct: endogenous in cells; host or cells: HepG2
T1 sequence (P35968 20-1356): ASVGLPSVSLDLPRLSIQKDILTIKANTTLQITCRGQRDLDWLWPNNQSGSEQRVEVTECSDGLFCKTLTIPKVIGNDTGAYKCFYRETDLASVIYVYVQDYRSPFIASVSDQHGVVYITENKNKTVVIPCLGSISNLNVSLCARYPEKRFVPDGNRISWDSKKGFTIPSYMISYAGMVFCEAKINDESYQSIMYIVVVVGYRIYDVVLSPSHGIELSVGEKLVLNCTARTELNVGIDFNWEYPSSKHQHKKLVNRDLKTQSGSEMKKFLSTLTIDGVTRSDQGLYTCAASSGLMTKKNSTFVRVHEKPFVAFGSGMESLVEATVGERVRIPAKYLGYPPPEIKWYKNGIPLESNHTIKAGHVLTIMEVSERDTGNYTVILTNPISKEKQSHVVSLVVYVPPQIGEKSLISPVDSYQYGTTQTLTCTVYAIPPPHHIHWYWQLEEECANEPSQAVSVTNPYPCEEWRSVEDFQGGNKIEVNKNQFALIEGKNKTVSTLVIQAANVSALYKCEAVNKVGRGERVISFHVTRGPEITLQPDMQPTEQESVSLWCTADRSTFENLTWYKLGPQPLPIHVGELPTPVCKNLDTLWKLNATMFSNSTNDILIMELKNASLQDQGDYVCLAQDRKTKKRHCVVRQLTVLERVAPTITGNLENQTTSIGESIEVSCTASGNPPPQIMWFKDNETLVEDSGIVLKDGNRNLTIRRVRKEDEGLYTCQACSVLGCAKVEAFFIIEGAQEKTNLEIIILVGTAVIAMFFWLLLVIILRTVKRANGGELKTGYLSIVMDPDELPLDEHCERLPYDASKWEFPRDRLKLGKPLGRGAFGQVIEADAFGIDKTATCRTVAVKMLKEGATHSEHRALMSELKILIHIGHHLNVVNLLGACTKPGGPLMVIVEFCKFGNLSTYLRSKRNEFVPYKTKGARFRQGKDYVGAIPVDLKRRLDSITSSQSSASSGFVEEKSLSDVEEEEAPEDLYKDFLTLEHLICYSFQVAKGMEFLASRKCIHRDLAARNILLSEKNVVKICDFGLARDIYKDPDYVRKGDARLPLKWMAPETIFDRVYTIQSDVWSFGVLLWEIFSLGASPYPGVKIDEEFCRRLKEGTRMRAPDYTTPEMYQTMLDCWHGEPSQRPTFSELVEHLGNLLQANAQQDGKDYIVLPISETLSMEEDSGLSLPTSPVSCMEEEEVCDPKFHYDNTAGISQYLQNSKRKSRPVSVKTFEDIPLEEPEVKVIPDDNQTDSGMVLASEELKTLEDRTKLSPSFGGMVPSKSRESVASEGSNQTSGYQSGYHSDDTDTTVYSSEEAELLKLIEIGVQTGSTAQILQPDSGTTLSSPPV

SMILES | IC50 [1] [µM] | IC50 [2] [µM] | IC50 [3] [µM]
O=C(Cn1c(=O)c2nncn2c2ccccc21)Nc1ccc(C(=O)Nc2ccc(Cl)cc2)cc1 [Compound 7] | 7.2 | 4.1 | –
COc1ccc(NC(=O)c2ccc(NC(=O)CSc3nnc4c5nncn5c5ccccc5n34)cc2)cc1 [Compound 8] | 4.4 | 3.3 | 0.0032
